Reference: publication PMC3735166, “Comparative Studies on Acetylcholinesterase Characteristics between the Aphids, Sitobion avenae and Rhopalosiphum padi” (Journal of Insect Science, 2013)
Structures can show the parent of a compound that is named as a salt. Where two headings read alike, the source gives them in different places.

Key:
[1] = target: T1, crude extract AChE from R. padi (Rhopalosiphum padi, UniProt Q6BCH8); assay: Inhibition of crude extract AChE from R. padi (Ellman method, 5 min preincubation); format: biochemical; settings: for inhibitory percentage of AChE specific activity: inhibitor 10 µM
T1 sequence (Q6BCH8 18-652): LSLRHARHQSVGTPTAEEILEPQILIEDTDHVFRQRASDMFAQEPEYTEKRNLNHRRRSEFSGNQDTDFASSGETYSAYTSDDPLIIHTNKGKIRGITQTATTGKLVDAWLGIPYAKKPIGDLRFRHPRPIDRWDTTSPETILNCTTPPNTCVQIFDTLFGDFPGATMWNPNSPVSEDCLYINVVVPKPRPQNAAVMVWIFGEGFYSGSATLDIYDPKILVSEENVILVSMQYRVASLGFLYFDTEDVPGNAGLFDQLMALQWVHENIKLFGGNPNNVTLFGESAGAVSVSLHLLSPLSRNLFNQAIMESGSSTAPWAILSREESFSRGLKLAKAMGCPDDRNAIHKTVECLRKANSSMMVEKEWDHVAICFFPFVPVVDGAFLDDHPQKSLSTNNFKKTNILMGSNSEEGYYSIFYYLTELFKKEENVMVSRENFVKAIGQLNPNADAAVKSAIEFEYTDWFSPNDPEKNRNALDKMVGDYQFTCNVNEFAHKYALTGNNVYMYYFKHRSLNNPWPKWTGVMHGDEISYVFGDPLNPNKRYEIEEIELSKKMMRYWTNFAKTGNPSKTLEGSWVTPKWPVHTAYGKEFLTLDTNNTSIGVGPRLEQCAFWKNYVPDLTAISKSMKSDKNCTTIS
Experimental: (§1) Step 1: Preparation of crude extract. About 1.0 g apterous adults were homogenized in 10 mL ice-cold 0.1 M phosphate buffer (pH 7.5), containing 0.2 M NaCl and 0.5 % (v/v) Triton X-100 and three protease inhibitors (1 mM EDTA-Na2, 1 µM leupeptin, and 10 µM PMSF). The homogenate was filtered through cheesecloth and then centrifuged at 41,000 g, 4°C for 1 h. The supernatant, after being filtered through glass wool, was used as crude extract.
(§2) AChE activities were determined according to the method of Ellman et al. ([1961]) modified by Gao ([1987]), using ATCh, PrTCh, MeTCh and BuTCh as substrates. The AChE activities were determined at 6 substrate concentrations from 0.15625 to 5 mM based on the reaction at 30°C for 15 min and the reaction was stopped by the addition of 900 µL, DTNB (0.125 mM) with 40% ethanol, then the optical density (OD) was measured at 412 nm by spectrophotometer (Lambda Bio 40).
(§3) The value of median inhibition concentration (I50) for the inhibitors were calculated based on log (inhibitor concentration) vs. probit (percentage of inhibition) linear regression.

[2] = target: T2, crude extract AChE from S. avenae (Sitobion avenae, UniProt Q66S75); assay: Inhibition of crude extract AChE from S. avenae (Ellman method, 5 min preincubation); format: biochemical; settings: for I50 times higher in S. avenae than in R. padi: ratio of I50 values of Table 4
T2 sequence (Q66S75 23-664): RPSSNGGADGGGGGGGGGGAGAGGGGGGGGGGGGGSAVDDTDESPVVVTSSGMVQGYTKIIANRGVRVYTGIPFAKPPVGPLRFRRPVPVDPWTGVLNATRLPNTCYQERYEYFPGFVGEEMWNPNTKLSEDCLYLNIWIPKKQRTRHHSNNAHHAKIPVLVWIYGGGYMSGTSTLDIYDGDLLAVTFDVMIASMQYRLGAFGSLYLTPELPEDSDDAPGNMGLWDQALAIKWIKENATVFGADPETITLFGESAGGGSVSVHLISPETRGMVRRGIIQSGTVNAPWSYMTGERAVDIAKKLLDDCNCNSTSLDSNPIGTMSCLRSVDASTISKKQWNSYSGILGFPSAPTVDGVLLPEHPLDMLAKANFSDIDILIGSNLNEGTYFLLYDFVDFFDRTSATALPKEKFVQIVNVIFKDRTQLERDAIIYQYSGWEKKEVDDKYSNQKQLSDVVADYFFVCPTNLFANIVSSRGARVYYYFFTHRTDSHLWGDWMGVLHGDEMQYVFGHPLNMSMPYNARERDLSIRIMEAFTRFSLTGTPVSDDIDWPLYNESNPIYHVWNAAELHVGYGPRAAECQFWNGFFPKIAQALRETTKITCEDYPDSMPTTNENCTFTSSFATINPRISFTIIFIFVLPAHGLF
Experimental: as §1, §2, §3

[3] = target: T3, purified AChE from R. padi (Rhopalosiphum padi, UniProt Q6BCH8); assay: Inhibition of purified AChE from R. padi (Ellman method, 5 min preincubation); format: biochemical; settings: for inhibitory percentage of AChE specific activity: inhibitor 10 µM
T3 sequence (Q6BCH8 18-652): as the sequence (Q6BCH8 18-652) above
Experimental: (§4) Purification of AChE from both aphid species was performed by affinity chromatography using procainamide as the affinity ligand. The procedure used in this study was according to the method of Gao and Zhu ([2001]) with some modifications, as follows:
as §1
(§5) Step 2: Chromatography on sephadex G-25. […] The fractions (5 ml each) were collected at the flow rate of 45 mL/h at 4°C. All the fractions containing the AChE activity were collected as the enzyme resource for the next step.
(§6) Step 3: Procainamide affinity chromatography and removal of procainamide and condensation. The procainamide-based AChE affinity column was made according to the instructions from the manufacturer. […] The collected AChE dialyzed against 0.05 M, pH 7.5 phosphate buffer three times for 3 h. The enzyme was stored at 4°C and used as the enzyme source.
as §2, §3

[4] = target: T1, crude extract AChE from R. padi; assay: Substrate specificity and kinetic analysis of crude extract AChE from R. padi; format: biochemical; settings: compound as substrate, 30°C; for Km: read-out: Km ± SE
Experimental: as §1, §2
(§7) All statistical tests were performed by using SAS computer program (USA). Values of Michalelis-Menten constants (Km) and maximal velocities (Vmax) for four substrates were calculated by Enzfitter software (Biosoft, http://www.biosoft.com/).

[5] = target: T2, crude extract AChE from S. avenae; assay: Substrate specificity and kinetic analysis of crude extract AChE from S. avenae; format: biochemical; settings: compound as substrate, 30°C; for Km: read-out: Km ± SE
Experimental: as §1, §2, §7

[6] = target: T4, purified AChE from S. avenae (Sitobion avenae, UniProt Q66S75); assay: Substrate specificity and kinetic analysis of purified AChE from S. avenae; format: biochemical; settings: for Vmax ± SE / Km: compound as substrate, 30°C; for Km: read-out: Km ± SE
T4 sequence (Q66S75 23-664): T2 sequence (Q66S75 23-664)
Experimental: as §4, §1, §5, §6, §2, §7

[7] = target: T3, purified AChE from R. padi; assay: Substrate specificity and kinetic analysis of purified AChE from R. padi; format: biochemical; settings: for Vmax ± SE / Km: compound as substrate, 30°C; for Km: read-out: Km ± SE
Experimental: as §4, §1, §5, §6, §2, §7

[8] = target: T3, purified AChE from R. padi; assay: as above; format: biochemical; settings: substrate 15 mM
[9] = target: T4, purified AChE from S. avenae; assay: Inhibition of purified AChE from S. avenae (Ellman method, 5 min preincubation); format: biochemical
Experimental: as §4, §1, §5, §6, §2, §3

S. avenae and R. padi = settings: comparison of the two aphid species, ref Lu and Gao 2009, cited from earlier work
[10] = target: T1, crude extract AChE from R. padi; settings: comparison of the two aphid species; ref Lu and Gao 2009; cited from earlier work
[11] = S. avenae, preincubation 5 min at 30°C, mean of three determinations, read-out: I50 ± SE (median inhibition concentration)
[12] = preincubation 5 min at 30°C, mean of three determinations, read-out: I50 ± SE (median inhibition concentration)

SMILES | Vmax ± SE [4] [nmol/min/mg protein] | Km [4] [µM] | Vmax ± SE [5] [nmol/min/mg protein] | Km [5] [µM] | Vmax ± SE [6] [nmol/min/mg protein] | Km [6] [µM] | Vmax ± SE [7] [nmol/min/mg protein] | Km [7] [µM] | further results
CNC(=O)Oc1ccc2c(c1)[C@]1(C)CCN(C)[C@@H]1N2C [Eserine, eserine hemisulfate salt] |  |  |  |  |  |  |  |  | inhibitory percentage of AChE specific activity [1]: about 50%; I50 times higher in S. avenae than in R. padi [2]: 4.1 times; inhibitory percentage of AChE specific activity [3]: more than 90%
CC(=O)SCC[N+](C)(C)C.[I-] [ATCh, Acetylthiocholine iodide] | 1.27 ± 0.05 | 360 ± 50 | 1.16 ± 0.11 | 650 ± 190 | 152.75 ± 3.63 | 2280 ± 120 | 37.58 ± 1.01 | 2180 ± 130 | substrate concentration at which substrate inhibition was observed [6]: > 10 mM; substrate concentration at which substrate inhibition was observed [7]: > 10 mM; specific activity of purified AChE [8]: 20.3 nmol/min/mg
C=CC[N+](C)(C)c1ccc(CCC(=O)CCc2ccc([N+](C)(C)CC=C)cc2)cc1.[Br-].[Br-] [BW284C51, 1,5-bis(4-allyldimethylammoniumphenyl)-pentan-3-one dibromide] |  |  |  |  |  |  |  |  | inhibitory percentage of AChE specific activity ([9]; S. avenae, inhibitor 10 µM): > 80%; IC50 [9, 11]: 1 ± 0.13 µM; I50 fold lower in S. avenae than in R. padi ([9]; from I50 values of Table 5): 0.4 fold; inhibitory percentage of AChE specific activity [1]: about 50%; IC50 [1, 12]: 9.7 ± 1 µM; IC50 [2, 11]: 24.7 ± 4.9 µM; I50 times higher in S. avenae than in R. padi [2]: 2.5 times; inhibitory percentage of AChE specific activity [3]: > 80%; IC50 [3, 12]: 2.57 ± 0.34 µM
Cc1nc(N(C)C)nc(OC(=O)N(C)C)c1C [Pirimicarb] |  |  |  |  |  |  |  |  | susceptibility / tolerance to pirimicarb in bioassays, S. avenae versus R. padi (S. avenae and R. padi): higher for S. avenae than for R. padi; susceptibility / tolerance to pirimicarb in bioassays, S. avenae versus R. padi (S. avenae and R. padi; listed as pirimicarb): R. padi was more susceptible than S. avenae; sensitivity of AChE to pirimicarb, R. padi versus S. avenae [10]: significantly higher in R. padi than in S. avenae
CC(=O)SC(C)C[N+](C)(C)C (stereo not drawn) [MeTCh, acetyl-(β-methyl) thiocholine] | 1.10 ± 0.07 | 290 ± 80 | 1.01 ± 0.10 | 400 ± 140 | 118.32 ± 5.64 | 2230 ± 230 | 31.58 ± 1.03 | 2450 ± 170 | substrate concentration at which substrate inhibition was observed [6]: > 10 mM; substrate concentration at which substrate inhibition was observed [7]: > 10 mM; specific activity of purified AChE [8]: 17.7 nmol/min/mg
CCCC(=O)SCC[N+](C)(C)C.[I-] [BuTCh, butyrylthiocholine iodide] | 4.12 ± 1.34 | 5340 ± 2790 | 11.88 ± 3.88 | 15100 ± 6210 | 9.09 ± 0.14 | 1690 ± 60 | 2.17 ± 0.09 | 670 ± 80 | 
CCC(=O)SCC[N+](C)(C)C.[I-] [PrTCh, propionylthiocholine iodide] | 0.76 ± 0.03 | 180 ± 40 | 1.04 ± 0.15 | 570 ± 260 | 94.01 ± 4.41 | 930 ± 120 | 24.24 ± 0.30 | 850 ± 30 | 
